Consider one compound from paper PMC8145938, “Triphenilphosphonium Analogs of Chloramphenicol as Dual-Acting Antimicrobial and Antiproliferating Agents” (Antibiotics, 2021).

Bounds are passed on as bounds.

For one assay, the system named is B. subtilis cells. The assay can be described thus: membrane potential by DiS-C3-(5) fluorescence. Format: cell-based, Bacillus subtilis. The text has this:
Thus, we further examined the effect of CAM-Cn-TPP on the bacterial membrane potential of B. subtilis. In particular, the membrane potential of B. subtilis can be estimated from the fluorescence of the potential-sensitive dye, DiS-C3-(5), by measuring the changing fluorescence. The potential-dependent accumulation of the dye inside the bacterial cell causes quenching and leads to a decrease in fluorescence. Under the influence of substances that reduce the membrane potential, the dye is released and the fluorescence increases. […] Therefore, the action of CAM-Cn-TPP may have a double effect on bacterial cells and be based on the depolarization of the bacterial membrane by analogy with the mechanism of action of Cn-TPP [17].
The membrane potential of B. subtilis was estimated by measuring the fluorescence of the potential-dependent probe, DiS-C3-(5). B. subtilis from the overnight culture were seeded into a fresh LB medium, followed by growth for […], until reaching the optical density of 0.8 at 600 nm. Then, the bacteria were diluted 20-fold in a buffer containing 100 mM of KCl and 10 mM of Tris, pH 7.4. The fluorescence was measured at 670 nm (excitation at 630 nm) using a Fluorat-02-Panorama fluorimeter.

For another assay, the system named is E. coli 70S ribosomes. Also noted: method as in PMID 33916420. The conditions noted are these: displacement of BODIPY-ERY from 70S ribosomes; read-out: apparent dissociation constant (KDapp); cited from earlier work.
For assay [1], the system named is MDA-MB-231 and BT-549 TNBC-sensitive and chemoresistant cells. In words: cancer cell proliferation / viability assay (MTT). Format: cell-based. Conditions: 3 days treatment. The text has this: We recently provided in vivo [67] and in vitro [68] evidence that certain bactericidal antibiotics suppress tumor growth by inducing mitochondrial dysfunction. […] These cells differ from the corresponding parental cells and display a different response to the same microenvironmental stimuli, allowing them to reduce their proliferating rate and survive chemotherapeutic treatment. Here, we tested the abovementioned CAM-TPP derivatives on chemoresistant triple negative breast cancer (TNBC) cell models, as well as on corresponding CSC-like spheroid cells. We created several relevant models based on TNBC cell lines, particularly MDA-MB-231 and BT-549, to determine their resistance to cyclophosphamide. To create CSC-like cells, parental cells were resuspended in nonadherent conditions to form tumorspheres.
The MDA-MB-231 (RRID: CVCL_0062) and BT-549 (RRID: CVCL_1092) cell lines were purchased from ATCC and cultured in DMEM/F12 (Gibco, Life Technologies, 31330-038) supplemented with 10% FBS, 1% Pen-Strep, 1% Sodium Pyruvate, and 1% L-glutamine. Chemoresistant cell lines were established with continuous treatment for 6 months with the anticancer therapeutic agent, cyclophosphamide (Rcyclo), as previously described. These cell lines were authenticated using short tandem repeat (STR) profiling within the last three years. […] The relative numbers of tumourspheres per well were counted manually. […]
The survival assay was performed essentially as described earlier. […] The absorbance was measured at 570 nm in Bio Spec 1601, Shimadzu spectrometer. […] The results were expressed as the means ± SEM. The data were analyzed using the GraphPad Prism 7 PRIZM computer software under the license of the Statistical Department (Vall’ d Hebron Hospital, Barcelona, Spain).

For assay [2], the system named is ribosome stalling on trpL mRNA in a cell-free translation system. In words: toeprinting (primer extension inhibition) assay on trpL mRNA. Conditions: trpL mRNA template, 30 μM compound. Format: biochemical. From the text:
To investigate the mechanism of action of CAM-C10-TPP and CAM-C14-TPP in the translation process, a primer extension inhibition assay (toeprinting) was used. This method allows for the unambiguous identification of drug-induced ribosome stalling sites along the mRNA, with single-nucleotide precision. This technique is also used to determine the context-specificity of antibiotic action. For this experiment, trpL mRNAs were chosen as the template, as in the pDualrep2 reporter system. […] Compared to the results obtained previously for CAM-C4-TPP using rst1 and rst2 mRNA templates, more unambiguous results were obtained using a trpL mRNA template. The main drug-induced ribosome stalling sites are different for CHL and CAM-Cn-TPP, and there are also CAM-Cn-TPP-specific stalling positions.
The toeprinting assay was carried out using trpL mRNA as a template, as described in [73], and the reactions were preincubated for 5 min with 30 μM of the tested compound.

As for `O=C(CCCC[P+](c1ccccc1)(c1ccccc1)c1ccccc1)N[C@H](CO)[C@H](O)c1ccc([N+](=O)[O-])cc1` [CAM-C4-TPP], in the assay on B. subtilis cells, the “concentration at which the compound takes effect on membrane potential” value was at least 10 µM. Further, the Kd in the assay on E. coli 70S ribosomes is 610 ± 70 nM. In assay [1], the “effect on proliferation of TNBC cell lines” value is “but not CAM-C4-TPP, significantly reduced the proliferation of TNBC cell lines”. Further, the “drug-induced ribosome stalling site” value in assay [2] was “blocked the ribosome progression at Val6 (Figure 2D, red arrowhead) and slightly blocked it at Ile4”.
